Experimental findings from patent US20230391775A1, “SUBSTITUTED DIARYLAMINE COMPOUND, PHARMACEUTICAL COMPOSITION THEREOF, PREPARATION METHOD THEREFOR, AND USE THEREOF” (SUZHOU YABAO PHARMACEUTICAL R&D CO., LTD., priority 2020, published 2023) are described below.

SMILES strings stand for the structures. pIC50: −log10 of the molar value.

LRRK2 G2019S, sequence (Q5S007 whole entry G2019S): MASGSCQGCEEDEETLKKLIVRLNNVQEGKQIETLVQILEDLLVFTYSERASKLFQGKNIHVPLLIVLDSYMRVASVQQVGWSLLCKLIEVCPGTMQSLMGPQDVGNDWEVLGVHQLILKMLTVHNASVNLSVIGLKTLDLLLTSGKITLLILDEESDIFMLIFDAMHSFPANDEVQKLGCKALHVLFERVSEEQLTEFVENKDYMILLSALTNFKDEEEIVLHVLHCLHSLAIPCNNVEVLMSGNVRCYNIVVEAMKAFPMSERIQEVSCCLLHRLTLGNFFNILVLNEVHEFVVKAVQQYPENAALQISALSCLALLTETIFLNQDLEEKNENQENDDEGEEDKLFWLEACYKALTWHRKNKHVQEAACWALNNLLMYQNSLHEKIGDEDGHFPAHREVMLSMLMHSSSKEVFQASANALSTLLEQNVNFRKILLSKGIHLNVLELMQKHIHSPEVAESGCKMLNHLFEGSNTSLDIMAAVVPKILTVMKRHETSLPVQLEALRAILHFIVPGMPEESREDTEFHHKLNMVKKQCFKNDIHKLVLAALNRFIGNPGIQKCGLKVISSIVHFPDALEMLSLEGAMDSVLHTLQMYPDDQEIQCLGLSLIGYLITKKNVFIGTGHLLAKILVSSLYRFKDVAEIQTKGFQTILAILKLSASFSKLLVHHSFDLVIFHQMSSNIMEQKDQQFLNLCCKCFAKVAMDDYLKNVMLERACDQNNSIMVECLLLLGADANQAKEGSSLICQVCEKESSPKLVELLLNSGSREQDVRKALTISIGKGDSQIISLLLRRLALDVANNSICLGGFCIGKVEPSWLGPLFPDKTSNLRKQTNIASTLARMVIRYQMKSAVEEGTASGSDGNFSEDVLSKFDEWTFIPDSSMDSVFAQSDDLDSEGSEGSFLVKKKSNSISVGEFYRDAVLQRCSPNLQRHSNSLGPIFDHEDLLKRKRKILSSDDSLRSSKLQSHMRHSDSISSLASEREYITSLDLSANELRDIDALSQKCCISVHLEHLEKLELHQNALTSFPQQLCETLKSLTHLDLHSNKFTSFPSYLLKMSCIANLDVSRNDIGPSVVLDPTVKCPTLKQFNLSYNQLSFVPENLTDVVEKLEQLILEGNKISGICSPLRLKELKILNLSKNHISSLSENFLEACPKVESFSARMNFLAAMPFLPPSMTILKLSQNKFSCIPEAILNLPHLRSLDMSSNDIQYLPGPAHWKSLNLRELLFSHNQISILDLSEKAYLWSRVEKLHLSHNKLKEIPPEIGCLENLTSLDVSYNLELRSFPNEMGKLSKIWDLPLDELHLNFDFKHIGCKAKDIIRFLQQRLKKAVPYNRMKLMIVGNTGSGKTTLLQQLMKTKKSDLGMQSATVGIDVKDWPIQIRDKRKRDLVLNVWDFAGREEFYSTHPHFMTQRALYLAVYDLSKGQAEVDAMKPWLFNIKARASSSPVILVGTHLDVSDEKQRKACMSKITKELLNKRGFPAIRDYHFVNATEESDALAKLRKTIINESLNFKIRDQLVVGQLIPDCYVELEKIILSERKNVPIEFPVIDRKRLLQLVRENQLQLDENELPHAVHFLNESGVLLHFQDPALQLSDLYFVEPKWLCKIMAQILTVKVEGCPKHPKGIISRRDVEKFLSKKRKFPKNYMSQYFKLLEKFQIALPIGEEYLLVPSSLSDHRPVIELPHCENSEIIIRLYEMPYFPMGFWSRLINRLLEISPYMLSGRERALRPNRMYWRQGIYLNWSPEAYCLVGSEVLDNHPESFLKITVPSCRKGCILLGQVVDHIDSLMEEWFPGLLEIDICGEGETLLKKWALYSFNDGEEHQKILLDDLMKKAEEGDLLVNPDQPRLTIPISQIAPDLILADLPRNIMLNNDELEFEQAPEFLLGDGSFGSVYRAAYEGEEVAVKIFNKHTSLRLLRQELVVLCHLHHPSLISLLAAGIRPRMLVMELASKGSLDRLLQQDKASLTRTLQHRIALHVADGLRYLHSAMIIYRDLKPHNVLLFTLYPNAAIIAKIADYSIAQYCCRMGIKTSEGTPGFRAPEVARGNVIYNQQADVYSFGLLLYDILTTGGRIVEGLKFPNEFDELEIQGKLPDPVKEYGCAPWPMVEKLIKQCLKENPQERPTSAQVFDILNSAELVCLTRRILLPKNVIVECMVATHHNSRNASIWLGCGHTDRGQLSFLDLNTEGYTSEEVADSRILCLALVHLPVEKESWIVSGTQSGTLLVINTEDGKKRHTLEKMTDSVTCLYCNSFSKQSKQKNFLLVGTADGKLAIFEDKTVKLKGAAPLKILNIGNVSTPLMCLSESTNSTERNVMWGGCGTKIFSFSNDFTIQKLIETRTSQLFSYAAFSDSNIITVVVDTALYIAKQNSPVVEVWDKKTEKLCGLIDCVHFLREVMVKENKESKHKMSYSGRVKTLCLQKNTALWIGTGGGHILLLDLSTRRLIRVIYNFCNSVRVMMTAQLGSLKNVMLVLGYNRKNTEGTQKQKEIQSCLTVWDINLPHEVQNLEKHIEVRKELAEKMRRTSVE

For the assay, the target named is LRRK2 G2019S (Homo sapiens (Human), UniProt Q5S007, G2019S). As to the kind of experiment: Adapta kinase assay (LRRK2_IC50 assay). Particulars: Adapta TR-FRET, 1 h, room temperature. The format is biochemical. The protocol:
In the Adapta™ kinase assay method (LRRK2_IC50 assay): the kinase reaction buffer contained kinase buffer S (Life Technologies, PV5213) and 2 mM DTT (Life Technologies, P2325). The kinases LRRK2 G2019S protein (PV4881) and ERM (LRRKtide, PV5093) were derived from Life Technologies. The Adapta™ universal kinase assay kit (Life Technologies, PV5099) contained the following components: Adapta™ Eu-anti-ADP antibody (PV5097; 4 μg); 10 μM AlexaFluor®647 ADP tracer (PV5098; 200 pmol); TR-FRET dilution buffer (PV3574; 100 mL); kinase quench buffer (P2825; 1 mL); 10 mM ATP (PV3227; 500 μL); and 10 mM ADP (PV5096; 500 μL). LRRK2-IN-1 (1234480-84-2, HY-10875) was derived from MedChem Express.
Adapta™ Kinase Assay Method
Adapta® universal kinase assay method is a uniform fluorescence-based immunoassay for detecting ADP. In contrast to ATP consumption assay, Adapta® assay method was very sensitive to ADP formation, with most signal changes occurring when initially 10-20% ATP was converted to ADP. This made Adapta® universal kinase assay method very suitable for low-activity kinases.
All assays were performed at room temperature (about 21° C.) and were linearly related to time and enzyme concentration under the conditions used. 1× kinase reaction buffer was prepared from 5× kinase buffer S stock solution (listed above), and 10 mL of 1× kinase reaction buffer was prepared by the addition of 2 mL of 5× stock solution to 8 mL of H2O. To the 1× kinase reaction buffer was added 20 μL of 1 M DTT.
A kinase reaction was performed in a low-volume 384-well plate in a volume of 10 μL. Typically, a Greiner plate was used (Catalog #3674 #, low volume, white wall, 784075). Other untreated assay plates that were not tested could also be suitable. The substrate concentration in the assay was 100 μM, and the 1× kinase reaction buffer consisted of 50 mM Tris-HCl (pH 8.5), 10 mM MgCl2, 1 mM EGTA, 0.01% Brij-35 and 2 mM DTT, as well as any other additives that could be necessary for the particular kinase. The kinase reaction was allowed to proceed for 1 h at room temperature, followed by the addition of a formulation of kinase quenching buffer (EDTA; 30 mM), Eu-labeled antibody (6 nM), and tracer (18.9 nM) in TR-FRET dilution buffer (5 μL). The final concentration of the antibody in the assay wells was 2 nM, the final concentration of the tracer was 6.3 nM, and the final concentration of EDTA was 10 mM. The plate was allowed to equilibrate at room temperature for at least 30 min and then read on a plate reader configured for Adapta™ TR-FRET.
The data provided in this document were generated by using BMG LABTECH PHERAstar plate reader and using appropriate filters and instrument settings for Adapta™. Test compounds were screened in wells with 1% DMSO (final). For 8-point titration, a 5-fold serial dilution was made on the basis of a starting concentration.
`CCOc1nc(Nc2ccc(C(N3CCOCC3)C(F)(F)F)cc2OC)nc2[nH]ccc12` (single isomer, unassigned) [Compound 1, 4-ethoxy-N-(2-methoxy-4-(2,2,2-trifluoro-1-morpholinoethyl)phenyl)-7H-pyrrolo[2,3-d]pyrimidin-2-amine] gave a pIC50 of 7.92.
As to `CCOc1nc(Nc2ccc(C(C)(N3CCOCC3)C(F)(F)F)cc2OC)nc2[nH]ccc12` (single isomer, unassigned) [Compound 2, 4-ethoxy-N-(2-methoxy-4-(1,1,1-trifluoro-2-morpholinylpropan-2-yl)phenyl)-7H-pyrrolo[2,3-d]pyrimidin-2-amine], the pIC50 is 7.26.
Take `COc1cc(C(N2CCOCC2)C(F)(F)F)ccc1Nc1nc(OCC(F)(F)F)c2cc[nH]c2n1` (single isomer, unassigned) [Compound 5]: the pIC50 was 7.77.
As for `COc1cc(C(N2CCOCC2)C(F)(F)F)ccc1Nc1nc(OCC(F)(F)F)c2cc[nH]c2n1` (single isomer, unassigned) [Compound 6], the figure is 7.92; as for `COc1cc(C(N2C[C@@H]3C[C@H]2CO3)C(F)(F)F)ccc1Nc1nc(OCC(F)(F)F)c2cc[nH]c2n1` (single isomer, unassigned) [Compound 7], 7.33; as for `COc1cc(C(N2C[C@@H]3C[C@H]2CO3)C(F)(F)F)ccc1Nc1nc(OCC(F)(F)F)c2cc[nH]c2n1` (single isomer, unassigned) [Compound 8], 7.28.
As for `CCOc1nc(Nc2ccc(C(N3C[C@@H]4C[C@H]3CO4)C(F)(F)F)cc2OC)nc2[nH]ccc12` (single isomer, unassigned) [Compound 9], the figure is 8.15.
In the case of `CCOc1nc(Nc2ccc(C(N3C[C@@H]4C[C@H]3CO4)C(F)(F)F)cc2OC)nc2[nH]ccc12` (single isomer, unassigned) [Compound 10] it was 7.96; in that of `COCCOc1nc(Nc2ccc(C(N3CCOCC3)C(F)(F)F)cc2OC)nc2[nH]ccc12` (single isomer, unassigned) [Compound 11], 8.22; in that of `COCCOc1nc(Nc2ccc(C(N3CCOCC3)C(F)(F)F)cc2OC)nc2[nH]ccc12` (single isomer, unassigned) [Compound 12], 7.92.
In turn, `CCOc1nc(Nc2ccc(C(N3CCOCC3)C(F)(F)F)cc2F)nc2[nH]ccc12` (single isomer, unassigned) [Compound 13] showed a negative logarithm of the IC50 (pIC50) of 7.51.
As for `CCOc1nc(Nc2ccc(C(N3CCOCC3)C(F)(F)F)cc2F)nc2[nH]ccc12` (single isomer, unassigned) [Compound 14], the figure is 7.52; as for `COc1cc(C(N2CCOCC2)C(F)(F)F)ccc1Nc1ncc2cc[nH]c2n1` (single isomer, unassigned) [Compound 15], 6.48.
For `COc1cc(C(N2CCOCC2)C(F)(F)F)ccc1Nc1ncc2cc[nH]c2n1` (single isomer, unassigned) [Compound 16], the negative-log IC50 (pIC50) was 6.37.
For the compound `COc1cc(C(N2CCOCC2)C(F)(F)F)ccc1Nc1nc(C)c2cc[nH]c2n1` (single isomer, unassigned) [Compound 17], the pIC50 is 6.69.
For the compound `COc1cc(C(N2CCOCC2)C(F)(F)F)ccc1Nc1nc(C)c2cc[nH]c2n1` (single isomer, unassigned) [Compound 18], the pIC50 was 6.60.
In the case of `CCc1nc(Nc2ccc(C(N3CCOCC3)C(F)(F)F)cc2OC)nc2[nH]ccc12` (single isomer, unassigned) [Compound 19] it was 6.48; in that of `CCc1nc(Nc2ccc(C(N3CCOCC3)C(F)(F)F)cc2OC)nc2[nH]ccc12` (single isomer, unassigned) [Compound 20], 6.63; in that of `CCOc1nc(Nc2ccc(C(N3CCOCC3)C(F)(F)F)cc2Cl)nc2[nH]ccc12` (single isomer, unassigned) [Compound 21], 6.92.
In the case of `CCOc1nc(Nc2ccc(C(N3CCOCC3)C(F)(F)F)cc2Cl)nc2[nH]ccc12` (single isomer, unassigned) [Compound 22] it was 6.86; in that of `COc1nc(Nc2ccc(C(N3CCOCC3)C(F)(F)F)cc2Cl)nc2[nH]ccc12` (single isomer, unassigned) [Compound 23], 6.83; in that of `COc1nc(Nc2ccc(C(N3CCOCC3)C(F)(F)F)cc2Cl)nc2[nH]ccc12` (single isomer, unassigned) [Compound 24], 6.91.
In the case of `CCOc1nc(Nc2ccc(C(N3CCOCC3)C(F)(F)F)cc2CC)nc2[nH]ccc12` (single isomer, unassigned) [Compound 25] it was 6.85.
`CCOc1nc(Nc2ccc(C(N3CCOCC3)C(F)(F)F)cc2CC)nc2[nH]ccc12` (single isomer, unassigned) [Compound 26] gave a pIC50 of 7.15.
As for `COc1cc(C(N2CCOCC2)C(F)(F)F)ccc1Nc1nc(OCCO)c2cc[nH]c2n1` (single isomer, unassigned) [Compound 27], the figure is 8.30; as for `COc1cc(C(N2CCOCC2)C(F)(F)F)ccc1Nc1nc(OCCO)c2cc[nH]c2n1` (single isomer, unassigned) [Compound 28], 8.30; as for `CCOc1nc(Nc2ccc(C(N3CCN(C)CC3)C(F)(F)F)cc2OC)nc2[nH]ccc12` (single isomer, unassigned) [Compound 29], 7.92.
As for `CCOc1nc(Nc2ccc(C(N3CCN(C)CC3)C(F)(F)F)cc2OC)nc2[nH]ccc12` (single isomer, unassigned) [Compound 30], the figure is 7.66; as for `CCOc1nc(Nc2ccc(C(N3CCN4CCC[C@@H]4C3)C(F)(F)F)cc2OC)nc2[nH]ccc12` (single isomer, unassigned) [Compound 31], 7.19.
For the compound `CCOc1nc(Nc2ccc(C(N3CCN4CCC[C@@H]4C3)C(F)(F)F)cc2OC)nc2[nH]ccc12` (single isomer, unassigned) [Compound 32], the pIC50 is 7.57.
Compound `CCOc1nc(Nc2ccc(C(N3C[C@H]4C[C@@H]3CO4)C(F)(F)F)cc2OC)nc2[nH]ccc12` (single isomer, unassigned) [Compound 33] showed a pIC50 of 8.00.
As for `CCOc1nc(Nc2ccc(C(N3C[C@H]4C[C@@H]3CO4)C(F)(F)F)cc2OC)nc2[nH]ccc12` (single isomer, unassigned) [Compound 34], the figure is 8.10.
Regarding `CCOc1nc(Nc2ccc(C(C)(N3CCOCC3)C(F)(F)F)cc2OC)nc2[nH]ccc12` (single isomer, unassigned) [Compound 35, 4-ethoxy-N-(2-methoxy-4-(1,1,1-trifluoro-2-morpholinopropan-2-yl)phenyl)-7H-pyrrolo[2,3-d]pyrimidin-2-amine], the pIC50 was 6.56.
`CCOc1nc(Nc2ccc(C3(N4CCOCC4)CC3)cc2OC)nc2[nH]ccc12` [Compound 3, 4-ethoxy-N-(2-methoxy-4-(1-morpholinocyclopropyl)phenyl)-7H-pyrrolo[2,3-d]pyrimidin-2-amine]: the pIC50 is 8.15.
In the case of `CCOc1nc(Nc2cc(F)c(C3(N4CCOCC4)CC3)cc2OC)nc2[nH]ccc12` [Compound 36] it was 7.42; in that of `CNc1nc(Nc2cc(F)c(C3(N4CCOCC4)CC3)cc2OC)ncc1C(F)(F)F` [Compound 37], 7.47.
In the case of `COc1cc(C2(N3CCOCC3)CC2)c(F)cc1Nc1nc(OC)c2cc[nH]c2n1` [Compound 38] it was 7.60.
